From US10092584B2 (Achillion Pharmaceuticals, Inc., priority 2015, dated 2018)
pIC50: −log10 of the molar value. Where two headings read alike, the source gives them in different places. Each block holds one molecule with its values, some of them ahead of it.

Biological target: T1, Human Factor D (Homo sapiens, UniProt P00746)
T1 construct: purified from human serum; purchased Complement Technology, Inc; host or cells: human serum
Assay: Human Factor D assay (Example 8)
Type: biochemical
Protocol: Human Factor D (purified from human serum, Complement Technology, Inc.) at 80 nM final concentration was incubated with test compound at various concentrations for 5 minutes at room temperature in 50 mM Tris, 1M NaCl, pH 7.5. A synthetic substrate Z-L-Lys-SBzl and DTNB (Ellman's reagent) are added to final concentrations of 100 μM each. […] IC50 values are calculated by nonlinear regression of complement Factor D reaction rates as a function of test compound concentration.

[1] = Table 3, Human Factor D 80 nM, substrate Z-L-Lys-SBzl, read-out: IC50 (Stars)
[2] = Table 1, Human Factor D 80 nM, substrate Z-L-Lys-SBzl, read-out: IC50
[3] = Table 2, Human Factor D 80 nM, substrate Z-L-Lys-SBzl, read-out: IC50

T1 sequence (P00746 26-253): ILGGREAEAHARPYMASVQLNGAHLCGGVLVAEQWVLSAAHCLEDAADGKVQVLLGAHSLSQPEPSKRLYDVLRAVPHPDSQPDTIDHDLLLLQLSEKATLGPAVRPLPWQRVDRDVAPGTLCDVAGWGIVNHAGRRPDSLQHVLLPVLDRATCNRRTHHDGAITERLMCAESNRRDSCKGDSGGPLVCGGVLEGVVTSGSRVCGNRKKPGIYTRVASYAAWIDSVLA

Compound: CC(=O)c1cn(CC(=O)N2C[C@H](F)C[C@H]2C(=O)Nc2cccc(-c3ccccc3Cl)c2F)c2cc(Cl)ccc12 [Compound 328, (2S,4R)-1-(2-(3-acetyl-6-chloro-1H-indol-1-yl)acetyl)-N-(2′-chloro-2-fluoro-[1,1′-biphenyl]-3-yl)-4-fluoropyrrolidine-2-carboxamide]
pIC50 [1]: > 6.00

Compound: COc1ccc2c(O[C@@H]3C[C@@H](C(=O)NCc4cccc(Cl)c4F)N(C(=O)Cn4cc(C(C)=O)c5ccccc54)C3)cc(-c3ccccc3)nc2c1 [Compound 29, (2S,4R)-1-(2-(3-acetyl-1H-indol-1-yl)acetyl)-N-(3-chloro-2-fluorobenzyl)-4-(7-methoxy-2-phenylquinolin-4-yloxy)pyrrolidine-2-carboxamide]
pIC50: < 5.00

Compound: CC(=O)c1cn(CC(=O)N2CC(F)C(OCC3CC3)[C@H]2C(=O)NCc2cccc(Cl)c2F)c2cc(O)ccc12 (stereo partly drawn) [Compound 25, (2S)-1-(2-(3-acetyl-6-hydroxy-1H-indol-1-yl)acetyl)-N-(3-chloro-2-fluorobenzyl)-3-(cyclopropylmethoxy)-4-fluoropyrrolidine-2-carboxamide]
pIC50: > 6.00

Compound: NC(=O)c1nn(CC(=O)N2C[C@H](F)[C@@H](O)[C@H]2C(=O)Nc2cccc(-c3ccccc3Cl)c2F)c2ccccc12 [Compound 279, 1-(2-((2S,3S,4S)-2-(2′-Chloro-2-fluorobiphenyl-3-ylcarbamoyl)-4-fluoro-3-hydroxypyrrolidin-1-yl)-2-oxoethyl)-1H-indazole-3-carboxamide]
pIC50 [1]: > 6.00

Compound: CC(=O)c1cn(CC(=O)N2C[C@H](F)C[C@H]2C(=O)Nc2cccc(-c3ccc(F)c(F)c3Cl)c2F)c2ccccc12 [Compound 93, (2S,4R)-1-(2-(3-acetyl-1H-indol-1-yl)acetyl)-N-(2′-chloro-2,3′,4′-trifluorobiphenyl-3-yl)-4-fluoropyrrolidine-2-carboxamide]
pIC50: > 6.00

Compound: NC(=O)c1nn(CC(=O)N2C[C@H](F)C[C@H]2C(=O)Nc2cccc(-c3ccccc3Cl)c2F)c2c(Cl)c(Cl)sc12 [Compound 137, 5,6-Dichloro-1-(2-((2S,4R)-2-((2′-chloro-2-fluoro-[1,1′-biphenyl]-3-yl)carbamoyl)-4-fluoropyrrolidin-1-yl)-2-oxoethyl)-1H-thieno[3,2-c]pyrazole-3-carboxamide]
pIC50 [3]: > 6.00

Compound: CC(=O)c1cn(CC(=O)N2C[C@H](F)C[C@H]2C(=O)Nc2cccc(-c3ccccc3Cl)c2F)c2c(-c3cn[nH]c3)cccc12 [Compound 114, (2S,4R)-1-(2-(3-acetyl-7-(1H-pyrazol-4-yl)-1H-indol-1-yl)acetyl)-N-(2′-chloro-2-fluorobiphenyl-3-yl)-4-fluoropyrrolidine-2-carboxamide]
pIC50 [2]: > 6.00

Compound: NC(=O)c1nn(CC(=O)N2CC[C@@H](N)[C@H]2C(=O)Nc2cccc(-c3ccccc3Cl)c2F)c2ccccc12 [Compound 356, 1-(2-((2S,3R)-3-amino-2-((2′-chloro-2-fluoro-[1,1′-biphenyl]-3-yl)carbamoyl)pyrrolidin-1-yl)-2-oxoethyl)-1H-indazole-3-carboxamide]
pIC50 [1]: > 6.00

Compound: CC(=O)c1nn(CC(=O)N2C[C@H](F)C[C@H]2C(=O)Nc2cccc(-c3ccccc3Cl)c2F)c2cc(C(=O)O)sc12 [Compound 138]
pIC50 [3]: > 6.00

Compound: O=C(NCc1cccc(Cl)c1F)[C@@H]1C[C@@H](F)CN1C(=O)Cn1cc([N+](=O)[O-])c2ccccc21 [Compound 46, (2S,4R)-N-(3-chloro-2-fluorobenzyl)-4-fluoro-1-(2-(3-nitro-1H-indol-1-yl)acetyl)pyrrolidine-2-carboxamide]
pIC50 [2]: > 6.00

Compound: NC(=O)c1nn(CC(=O)N2C[C@H](F)C[C@H]2C(=O)Nc2cccc(-c3c(F)cc(F)cc3Cl)n2)c2cnccc12 [Compound 100, 1-(2-((2S,4R)-2-(6-(2-chloro-4,6-difluorophenyl)pyridin-2-ylcarbamoyl)-4-fluoropyrrolidin-1-yl)-2-oxoethyl)-1H-pyrazolo[3,4-c]pyridine-3-carboxamide]
pIC50 [2]: > 6.00

Compound: CC(=O)n1cc(NC(=O)[C@H]2CC(F)(F)CN2C(=O)NCc2cccc(Cl)c2F)c2ccccc21 [Compound 8, (R)-N2-(1-acetyl-1H-indol-3-yl)-N1-(3-chloro-2-fluorobenzyl)-4,4-difluoropyrrolidine-1,2-dicarboxamide]
pIC50 [2]: < 5.00

Compound: CC(=O)n1cc(NC(=O)[C@@H]2C[C@H](F)CN2C(=O)NCc2ccccc2)c2ccccc21 [Compound 5, (2S,4S)-N2-(1-acetyl-1H-indol-3-yl)-N1-benzyl-4-fluoropyrrolidine-1,2-dicarboxamide]
pIC50 [2]: < 5.00

Compound: NC(=O)c1cn(CC(=O)N2C[C@H](F)C[C@H]2C(=O)Nc2cccc(-c3ccccc3Cl)c2F)c2ccsc12 [Compound 103, 4-(2-((2S,4R)-2-(2′-chloro-2-fluorobiphenyl-3-ylcarbamoyl)-4-fluoropyrrolidin-1-yl)-2-oxoethyl)-4H-thieno[3,2-b]pyrrole-6-carboxamide]
pIC50 [2]: > 6.00

Compound: CC(=O)c1cn(CC(=O)N2C[C@H](F)C[C@H]2c2ncc(-c3cccc(Cl)c3)[nH]2)c2ccccc12 [Compound 11, 2-(3-acetyl-1H-indol-1-yl)-1-((2S,4R)-2-(5-(3-chlorophenyl)-1H-imidazol-2-yl)-4-fluoropyrrolidin-1-yl)ethanone]
pIC50 [2]: < 5.00

Compound: CC(C)(C)OC(=O)N[C@@H](Cc1c[nH]c2ccccc12)C(=O)N1C[C@H](F)C[C@H]1C(=O)NCc1cccc(Cl)c1F [Compound 38, tert-butyl (S)-1-((2S,4R)-2-(3-chloro-2-fluorobenzylcarbamoyl)-4-fluoropyrrolidin-1-yl)-3-(1H-indol-3-yl)-1-oxopropan-2-ylcarbamate]
pIC50 [2]: < 5.00

Compound: CC(=O)c1cn(CC(=O)N2C[C@H](F)C[C@H]2C(=O)Nc2cccc(-c3ccccc3Cl)c2F)c2cccc(C#N)c12 [Compound 97, (2S,4R)-1-(2-(3-acetyl-4-cyano-1H-indol-1-yl)acetyl)-N-(2′-chloro-2-fluorobiphenyl-3-yl)-4-fluoropyrrolidine-2-carboxamide]
pIC50: > 6.00

Compound: CC(=O)c1nn(CC(=O)N2C[C@H](F)C[C@H]2C(=O)Nc2cccc(Br)n2)c2ccc(O)cc12 [Compound 395, (2S,4R)-1-(2-(3-acetyl-5-hydroxy-1H-indazol-1-yl)acetyl)-N-(6-bromopyridin-2-yl)-4-fluoropyrrolidine-2-carboxamide]
pIC50 [1]: > 6.00

Compound: CC(=O)Nc1ccc(C(=O)N2C[C@H](F)C[C@H]2C(=O)NCc2cccc(Cl)c2F)cn1 [Compound 51, (2S,4R)-1-(6-acetamidonicotinoyl)-N-(3-chloro-2-fluorobenzyl)-4-fluoropyrrolidine-2-carboxamide]
pIC50 [2]: < 5.00

Now from value to molecule:

pIC50 [2]: < 5.00
Compound: O=C(O)CCC(=O)N1CCc2c(n(CC(=O)N3C[C@H](F)C[C@H]3C(=O)NCc3cccc(Cl)c3F)c3ccccc23)C1 [Compound 72, 4-(9-(2-((2S,4R)-2-(3-chloro-2-fluorobenzylcarbamoyl)-4-fluoropyrrolidin-1-yl)-2-oxoethyl)-3,4-dihydro-1H-pyrido[3,4-b]indol-2(9H)-yl)-4-oxobutanoic acid]

pIC50 [2]: > 6.00
Compound: O=C(NCc1cccc(Cl)c1F)[C@@H]1C[C@@H](F)CN1C(=O)Cn1nc(-c2cn[nH]c2)c2ccncc21 [Compound 73, (2S,4R)-1-(2-(3-(1H-pyrazol-4-yl)-1H-pyrazolo[3,4-c]pyridin-1-yl)acetyl)-N-(3-chloro-2-fluorobenzyl)-4-fluoropyrrolidine-2-carboxamide]

pIC50 [2]: > 6.00
Compound: N#Cc1cn(CC(=O)N2C[C@H](F)C[C@H]2C(=O)NCc2cccc(Cl)c2F)c2ccccc12 [Compound 36, (2S,4R)-N-(3-chloro-2-fluorobenzyl)-1-(2-(3-cyano-1H-indol-1-yl)acetyl)-4-fluoropyrrolidine-2-carboxamide]

pIC50 [2]: < 5.00
Compound: CC(=O)n1cc(NC(=O)[C@@H]2C[C@@H](F)CN2C(=O)NCc2cccc(Cl)c2F)c2ccccc21 [Compound 3, (2S,4R)-N2-(1-acetyl-1H-indol-3-yl)-N1-(3-chloro-2-fluorobenzyl)-4-fluoropyrrolidine-1,2-dicarboxamide]

pIC50 [1]: > 6.00
Compound: C[C@@]12C[C@@H](C(=O)Nc3cccc(-c4ccc5nc[nH]c5c4Cl)c3F)N(C(=O)Cn3nc(C(N)=O)c4ccccc43)[C@@H]1C2 [Compound 453, 1-(2-((1R,3S,5R)-3-((3-(7-chloro-1H-benzo[d]imidazol-6-yl)-2-fluorophenyl)car-bamoyl)-5-methyl-2-azabicyclo[3.1.0]hexan-2-yl)-2-oxoethyl)-1H-indazole-3-carboxamide]

pIC50 [2]: < 5.00
Compound: NC(=O)N1CC(NC(=O)[C@@H]2CCC[C@H]2C(=O)NCc2cccc(Cl)c2F)c2ccccc21 (stereo partly drawn) [Compound 26, (1R,2R)-N1-(1-carbamoylindolin-3-yl)-N2-(3-chloro-2-fluorobenzyl)cyclo-pentane-1,2-dicarboxamide]

pIC50 [1]: > 6.00
Compound: Cc1nc2c(s1)c(C(N)=O)nn2CC(=O)N1C[C@H](F)C[C@H]1C(=O)Nc1cccc(-c2ccccc2Cl)c1F [Compound 383, 1-(2-((2S,4R)-2-(2′-Chloro-2-fluorobiphenyl-3-ylcarbamoyl)-4-fluoropyrrolidin-1-yl)-2-oxoethyl)-5-methyl-1H-pyrazolo[3,4-d]thiazole-3-carboxamide]

pIC50 [1]: > 6.00
Compound: CC(=O)c1nn(CC(=O)N2C[C@H](F)C[C@H]2C(=O)NCC23CC4CC(CC(C4)C2)C3)c2ccccc12 [Compound 397, (2S,4R)-1-(2-(3-acetyl-1H-indazol-1-yl)acetyl)-N-(((3S,5S,7S)-adamantan-1-yl)methyl)-4-fluoropyrrolidine-2-carboxamide]

pIC50 [2]: > 6.00
Compound: Cc1cc2c(s1)c(C(N)=O)nn2CC(=O)N1C[C@H](F)C[C@H]1C(=O)Nc1cccc(Br)n1 [Compound 118, 1-(2-((2S,4R)-2-(6-bromopyridin-2-ylcarbamoyl)-4-fluoropyrrolidin-1-yl)-2-oxoethyl)-5-methyl-1H-thieno[3,2-c]pyrazole-3-carboxamide]
